Here are results for 15 compounds from PubChem BioAssay (NCI).

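Following 48 hours of exposure in 96-well plates, responses at five concentrations were used to interpolate endpoints linearly. Definition used: TGI = concentration required for complete inhibition of growth.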

Among the test systems are EKVX NSCLC; COLO 205 colon; LOX IMVI melanoma; HCC-2998 colon; U251 CNS; NCI-H460 lung; OVCAR-3 ovarian; NCI-H522 lung; MALME-3M melanoma.
Common to all, as to experiment: growth of human tumour cells (NCI), 48 h

For `OCCOCn1nc(-c2ccccc2)nc1-c1cnccn1`, the TGI in the test with EKVX NSCLC, in the test on COLO 205 colon, in the test on LOX IMVI melanoma, in the test with HCC-2998 colon, in the test with U251 CNS and with NCI-H460 lung was over 100 µM throughout. In addition, the TGI in the test with OVCAR-3 ovarian and with NCI-H522 lung was over 100 µM each time.
`COC(=O)c1ccc2n[se]nc2c1`: the TGI in the test with EKVX NSCLC, with LOX IMVI melanoma, in the test on HCC-2998 colon, in the test with U251 CNS, in the test with MALME-3M melanoma and in the test with NCI-H460 lung was over 100 µM throughout. The compound further showed a TGI in the test on NCI-H522 lung of over 100 µM.
With `O=C(N/C(=C\c1cc(Cl)ccc1Cl)c1nc2ccccc2[nH]1)c1ccccc1`, the TGI is over 100 µM in the test with EKVX NSCLC; 37.8 µM in the test on HCC-2998 colon; over 100 µM in the test on U251 CNS; over 100 µM with MALME-3M melanoma; over 100 µM in the test with OVCAR-3 ovarian; over 100 µM in the test with NCI-H522 lung.
As for `COc1cc(C=C2C(=O)OC(C)(C)OC2=O)cc(OC)c1OC`, the TGI in the test with EKVX NSCLC, in the test on COLO 205 colon, with LOX IMVI melanoma, in the test on HCC-2998 colon, in the test on U251 CNS and in the test with MALME-3M melanoma was over 100 µM in each case. For the same compound, the TGI in the test with NCI-H460 lung, in the test with OVCAR-3 ovarian and in the test with NCI-H522 lung was over 100 µM in each case.
Take `CC(=O)OC1CC[C@@]2(C)C(CC(OC3OC(CO)C(O)C(O)C3O)[C@]3(C)C2CCC24CC23CC[C@H]4C(C)CC(O)[C@@H](O)C(C)(C)O)C1(C)C` (stereo partly specified): the TGI was 48.6 µM with EKVX NSCLC; 17.1 µM with COLO 205 colon; 15.5 µM in the test on LOX IMVI melanoma; 25.5 µM in the test with HCC-2998 colon; 17.4 µM in the test on U251 CNS; 18.8 µM in the test with MALME-3M melanoma. For the same compound, the TGI was over 50 µM with NCI-H460 lung, 48.7 µM with OVCAR-3 ovarian and 16.2 µM in the test with NCI-H522 lung.
In the case of `COC(=O)c1nc(N)[nH]c(=O)c1-c1ccc(Cl)cc1`, the TGI in the test with EKVX NSCLC, with COLO 205 colon, with LOX IMVI melanoma, in the test on HCC-2998 colon, in the test on U251 CNS and with MALME-3M melanoma was over 100 µM throughout. The TGI in the test with NCI-H460 lung, in the test on OVCAR-3 ovarian and in the test on NCI-H522 lung was over 100 µM each time.
Regarding `Clc1cc(Cl)c2n[se]nc2c1`, the TGI in the test on EKVX NSCLC, in the test on LOX IMVI melanoma, with HCC-2998 colon, with U251 CNS, with MALME-3M melanoma and in the test with NCI-H460 lung was over 100 µM each time. Moreover, the TGI with NCI-H522 lung is over 100 µM.
With `COc1ncn(C2C=C(CO)C(O)C2O)c(=O)n1` (stereo unspecified), the TGI in the test on EKVX NSCLC, with COLO 205 colon, in the test on HCC-2998 colon, with U251 CNS, with MALME-3M melanoma and in the test on NCI-H460 lung was over 100 µM in each case. Also, the TGI in the test with OVCAR-3 ovarian and in the test with NCI-H522 lung was over 100 µM throughout.
Consider `Cc1cc(C)cc(NC(=O)CCC(=O)C2CCC/C2=N\NC(=O)C(=O)NN)c1` (stereo unspecified), for which the TGI in the test on EKVX NSCLC, in the test on COLO 205 colon, in the test on LOX IMVI melanoma, in the test on HCC-2998 colon, in the test with U251 CNS and with MALME-3M melanoma was over 100 µM each time. The TGI in the test with NCI-H460 lung and in the test with OVCAR-3 ovarian was over 100 µM in each case.
For the compound `O=C(/C=C(\O)C(=O)O)/C=C(\O)c1ccc(Cl)cc1`, the TGI with EKVX NSCLC, in the test on COLO 205 colon, with LOX IMVI melanoma, with HCC-2998 colon, with U251 CNS and in the test on MALME-3M melanoma was over 100 µM in each case. Also, the TGI in the test with NCI-H460 lung, with OVCAR-3 ovarian and with NCI-H522 lung was over 100 µM throughout.
For the compound `COc1cc2c3c(c1OC)C1(C=CC(=O)C=C1)CC3N(C(=O)OC(C)(C)C(Cl)(Cl)Cl)CC2` (stereo unspecified), the TGI is 45.2 µM with EKVX NSCLC; 29 µM with COLO 205 colon; 26.1 µM in the test with LOX IMVI melanoma; 22.4 µM with U251 CNS; 27.2 µM in the test on MALME-3M melanoma; 30.8 µM with NCI-H460 lung. Moreover, the TGI in the test with OVCAR-3 ovarian came to 20.7 µM; with NCI-H522 lung, 23.2 µM.
Regarding `COC(=O)CC[C@@H](NC(=O)C(C)NC(=O)COC1C(O)C(COC(=O)CCCCCCCCCCNC(=O)c2ccc([N+](=O)[O-])c3[nH]c4cc(Br)ccc4c(=O)c23)OC(OCc2ccccc2)C1NC(C)=O)C(N)=O` (stereo partly specified), the TGI in the test on EKVX NSCLC was over 100 µM; with COLO 205 colon, over 100 µM; with LOX IMVI melanoma, over 100 µM; in the test with HCC-2998 colon, 93.2 µM; in the test with U251 CNS it was over 100 µM; with MALME-3M melanoma it was over 100 µM. For the same compound, the TGI with NCI-H460 lung, with OVCAR-3 ovarian and in the test on NCI-H522 lung was over 100 µM throughout.
Consider `NC(N)=Nc1nc2cc(N)ccc2o1`, for which the TGI in the test with EKVX NSCLC, in the test on LOX IMVI melanoma, in the test with HCC-2998 colon, in the test with U251 CNS, in the test on MALME-3M melanoma and with NCI-H460 lung was over 100 µM throughout. This compound also came in with a TGI in the test with NCI-H522 lung of over 100 µM.
Consider `COC1=C(C(=O)OC(C)(C)C)C23CCCCC2(C(C(=O)OC(C)(C)C)=C(OC)C3C(=O)OC(C)(C)C)C1C(=O)OC(C)(C)C` (stereo unspecified), for which the TGI in the test on EKVX NSCLC was over 100 µM; in the test on COLO 205 colon, 32.8 µM; with LOX IMVI melanoma, over 100 µM; in the test on HCC-2998 colon, over 100 µM; with U251 CNS, over 100 µM; in the test on MALME-3M melanoma it was over 100 µM. For the same compound, the TGI with NCI-H460 lung, in the test with OVCAR-3 ovarian and in the test on NCI-H522 lung was over 100 µM in each case.
As for `O=C1/C=C(/c2ccc(O)cc2)[C@H](O)Cc2ccc(OC3OC(CO)C(O)C(O)C3O)cc2O1` (stereo partly specified) (tested in a mixture with another compound), the TGI in the test with EKVX NSCLC, in the test with COLO 205 colon, with LOX IMVI melanoma, in the test on U251 CNS, in the test on MALME-3M melanoma and with NCI-H460 lung was over 100 µM each time. Further, the TGI with OVCAR-3 ovarian and in the test with NCI-H522 lung was over 100 µM in each case.
